In brackets after ≈: the same amount, converted by molar mass.
What was measured:
[1] = target: E. coli RNA polymerase σ^70 holoenzyme (Escherichia coli, UniProt P0A8T7+P0A8V2); assay: Fluorescence-detected RNA polymerase assay, E. coli RNA polymerase; format: biochemical; conditions: read-out: IC50 E. coli RNAP
[2] = tested on: Staphylococcus aureus ATCC 12600; assay: MIC, spiral gradient endpoint assay, S. aureus ATCC 12600; format: cell-based; conditions: ATCC12600; Staphylococcus aureus ATCC 12600
[3] = tested on: Acinetobacter baumannii ATCC 19606; assay: MIC, spiral gradient endpoint assay, A. baumannii; format: cell-based; conditions: ATCC19606; Acinetobacter baumannii ATCC 19606
[4] = tested on: Escherichia coli D21f2tolC; assay: MIC, spiral gradient endpoint assay, E. coli D21f2tolC; format: cell-based; conditions: Escherichia coli, D21F2TOLC, read-out: MIC E. coli D21f2toIC
[5] = tested on: Bacillus anthracis Vollum 1b; assay: microbe, parasite or virus in culture; format: cell-based; conditions: Bacillus anthracis, VOLLUM1B, read-out: MIC B. anthracis Vollum-1b
[6] = tested on: Francisella tularensis SCHU4; assay: microbe, parasite or virus in culture; format: cell-based; conditions: Francisella tularensis, SCHU4, read-out: MIC F. tularensis SCHU4
Burkholderia mallei CHN7 = assay: microbe, parasite or virus in culture; format: cell-based; conditions: Burkholderia mallei, CHN7, read-out: MIC B. mallei CHN7
[7] = tested on: Burkholderia pseudomallei Human/Blood/OH/US/1994; assay: microbe, parasite or virus in culture; format: cell-based; conditions: Burkholderia pseudomallei, read-out: MIC B. pseudomallei Human/Blood/OH
Brucella melitensis 16M = assay: microbe, parasite or virus in culture; format: cell-based; conditions: Brucella melitensis, 16M, read-out: MIC B. melitensis 16M
[8] = tested on: Mycobacterium tuberculosis H37Rv; assay: MIC, microplate Alamar Blue assay, M. tuberculosis; format: cell-based

E. coli RNA polymerase σ^70 holoenzyme, sequence (P0A8T7 whole entry): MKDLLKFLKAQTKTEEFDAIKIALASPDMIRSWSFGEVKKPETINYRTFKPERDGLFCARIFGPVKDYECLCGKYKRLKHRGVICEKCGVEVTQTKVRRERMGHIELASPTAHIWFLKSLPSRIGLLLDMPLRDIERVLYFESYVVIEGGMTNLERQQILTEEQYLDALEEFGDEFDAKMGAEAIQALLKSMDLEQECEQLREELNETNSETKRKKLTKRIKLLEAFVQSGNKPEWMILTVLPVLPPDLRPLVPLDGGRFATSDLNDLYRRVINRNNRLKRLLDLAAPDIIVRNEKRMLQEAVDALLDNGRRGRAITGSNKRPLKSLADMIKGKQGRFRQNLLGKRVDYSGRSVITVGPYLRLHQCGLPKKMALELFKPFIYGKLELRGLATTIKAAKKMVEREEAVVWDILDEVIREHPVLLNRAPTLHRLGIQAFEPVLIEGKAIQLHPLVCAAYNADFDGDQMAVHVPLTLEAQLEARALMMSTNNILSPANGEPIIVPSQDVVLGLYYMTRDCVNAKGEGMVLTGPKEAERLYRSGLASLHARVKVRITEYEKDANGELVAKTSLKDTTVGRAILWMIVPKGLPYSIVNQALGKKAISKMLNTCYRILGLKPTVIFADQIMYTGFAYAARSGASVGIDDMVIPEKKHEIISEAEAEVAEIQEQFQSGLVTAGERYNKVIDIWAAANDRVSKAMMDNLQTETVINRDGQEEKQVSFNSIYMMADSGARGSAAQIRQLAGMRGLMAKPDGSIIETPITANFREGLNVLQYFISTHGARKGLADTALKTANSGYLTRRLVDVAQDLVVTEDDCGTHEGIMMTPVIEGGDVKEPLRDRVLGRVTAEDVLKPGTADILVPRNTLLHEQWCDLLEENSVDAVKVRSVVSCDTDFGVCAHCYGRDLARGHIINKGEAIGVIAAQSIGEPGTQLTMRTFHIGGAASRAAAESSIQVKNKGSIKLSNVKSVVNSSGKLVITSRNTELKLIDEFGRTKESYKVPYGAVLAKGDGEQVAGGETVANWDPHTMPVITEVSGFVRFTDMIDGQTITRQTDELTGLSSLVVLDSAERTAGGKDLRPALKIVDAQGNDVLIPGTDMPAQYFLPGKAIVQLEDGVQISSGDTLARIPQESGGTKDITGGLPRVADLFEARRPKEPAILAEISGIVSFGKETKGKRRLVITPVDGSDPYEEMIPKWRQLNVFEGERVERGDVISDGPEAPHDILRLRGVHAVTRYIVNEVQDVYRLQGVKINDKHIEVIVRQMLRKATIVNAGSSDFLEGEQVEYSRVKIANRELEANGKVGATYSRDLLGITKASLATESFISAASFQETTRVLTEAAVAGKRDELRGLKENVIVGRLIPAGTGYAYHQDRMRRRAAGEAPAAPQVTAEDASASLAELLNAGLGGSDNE
E. coli RNA polymerase σ^70 holoenzyme, sequence (P0A800 whole entry, further chain): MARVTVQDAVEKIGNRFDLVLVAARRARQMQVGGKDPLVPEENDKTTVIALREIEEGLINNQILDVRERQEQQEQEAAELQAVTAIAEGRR
E. coli RNA polymerase σ^70 holoenzyme, sequence (P0A8V2 whole entry): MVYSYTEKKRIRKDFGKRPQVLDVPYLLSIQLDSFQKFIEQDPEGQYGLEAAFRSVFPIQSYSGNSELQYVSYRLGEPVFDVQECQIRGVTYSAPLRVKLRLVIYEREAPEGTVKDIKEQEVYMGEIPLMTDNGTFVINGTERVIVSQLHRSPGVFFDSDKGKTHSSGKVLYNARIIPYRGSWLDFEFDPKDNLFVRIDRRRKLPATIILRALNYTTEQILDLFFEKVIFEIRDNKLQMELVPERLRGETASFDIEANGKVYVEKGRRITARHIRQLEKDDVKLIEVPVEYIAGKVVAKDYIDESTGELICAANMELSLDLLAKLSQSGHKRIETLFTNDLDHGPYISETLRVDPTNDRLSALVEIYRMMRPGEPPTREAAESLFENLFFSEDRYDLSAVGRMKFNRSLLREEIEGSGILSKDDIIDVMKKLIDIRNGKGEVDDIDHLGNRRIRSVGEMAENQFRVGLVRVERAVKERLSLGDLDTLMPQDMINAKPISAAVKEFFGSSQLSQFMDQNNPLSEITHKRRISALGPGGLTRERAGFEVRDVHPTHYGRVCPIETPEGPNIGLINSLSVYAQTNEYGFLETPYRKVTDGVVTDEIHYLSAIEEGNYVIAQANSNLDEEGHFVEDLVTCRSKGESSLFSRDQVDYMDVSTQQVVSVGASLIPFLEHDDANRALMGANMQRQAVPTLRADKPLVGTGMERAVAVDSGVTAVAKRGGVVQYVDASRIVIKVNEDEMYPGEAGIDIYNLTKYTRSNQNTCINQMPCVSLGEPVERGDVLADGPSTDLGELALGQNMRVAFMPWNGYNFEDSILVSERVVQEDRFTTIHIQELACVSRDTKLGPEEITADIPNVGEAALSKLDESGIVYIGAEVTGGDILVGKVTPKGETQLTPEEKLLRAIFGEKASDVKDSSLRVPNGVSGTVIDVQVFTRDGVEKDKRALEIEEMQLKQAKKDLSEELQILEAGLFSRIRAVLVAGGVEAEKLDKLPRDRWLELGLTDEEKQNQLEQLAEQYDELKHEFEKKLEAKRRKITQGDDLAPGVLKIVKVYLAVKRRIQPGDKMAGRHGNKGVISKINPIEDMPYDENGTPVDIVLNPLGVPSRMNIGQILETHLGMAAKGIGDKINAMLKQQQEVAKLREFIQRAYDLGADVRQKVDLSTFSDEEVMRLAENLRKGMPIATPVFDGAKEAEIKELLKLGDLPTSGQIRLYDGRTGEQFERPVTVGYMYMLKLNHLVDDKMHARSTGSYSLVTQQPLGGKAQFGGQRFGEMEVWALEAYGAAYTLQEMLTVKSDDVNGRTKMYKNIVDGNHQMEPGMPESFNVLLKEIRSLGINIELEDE
E. coli RNA polymerase σ^70 holoenzyme, sequence (P00579 whole entry, further chain): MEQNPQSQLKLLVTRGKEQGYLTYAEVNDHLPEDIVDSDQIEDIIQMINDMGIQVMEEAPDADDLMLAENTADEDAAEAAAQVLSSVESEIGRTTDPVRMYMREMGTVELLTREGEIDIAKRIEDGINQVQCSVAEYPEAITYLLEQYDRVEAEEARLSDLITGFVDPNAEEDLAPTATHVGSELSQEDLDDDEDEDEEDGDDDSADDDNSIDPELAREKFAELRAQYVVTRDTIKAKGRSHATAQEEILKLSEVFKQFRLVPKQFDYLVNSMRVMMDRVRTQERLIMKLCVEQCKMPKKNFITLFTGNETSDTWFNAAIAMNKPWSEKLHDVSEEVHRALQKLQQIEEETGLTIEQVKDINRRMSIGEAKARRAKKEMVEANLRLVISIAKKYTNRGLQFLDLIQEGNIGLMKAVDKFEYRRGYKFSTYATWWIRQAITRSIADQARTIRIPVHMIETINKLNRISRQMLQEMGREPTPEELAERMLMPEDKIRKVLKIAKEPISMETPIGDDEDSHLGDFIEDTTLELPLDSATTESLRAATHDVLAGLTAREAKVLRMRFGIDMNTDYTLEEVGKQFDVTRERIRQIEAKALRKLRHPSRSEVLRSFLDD
E. coli RNA polymerase σ^70 holoenzyme, sequence (P0A7Z4 whole entry, further chain): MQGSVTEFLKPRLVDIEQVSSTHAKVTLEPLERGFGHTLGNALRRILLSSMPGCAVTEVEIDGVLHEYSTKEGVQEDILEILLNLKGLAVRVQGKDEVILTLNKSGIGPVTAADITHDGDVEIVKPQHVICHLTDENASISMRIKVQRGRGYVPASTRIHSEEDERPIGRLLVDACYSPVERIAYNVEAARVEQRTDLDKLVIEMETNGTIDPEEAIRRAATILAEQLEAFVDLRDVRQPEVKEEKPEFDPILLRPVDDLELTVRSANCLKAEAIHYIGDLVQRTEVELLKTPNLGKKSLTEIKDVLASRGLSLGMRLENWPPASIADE

COC(=O)N/C=C/CCC(C)c1cc(O)c(C(=O)C(C)=Cc2ccc(C)s2)c(=O)o1 (mixture of isomers) [APY69, methyl (E)-5-(4-hydroxy-5-((E/Z)-2-methyl-3-(5-methylthiophen-2-yl)acryloyl)-6-oxo-6H-pyran-2-yl)hex-1-enylcarbamate]
IC50 [1]: 1000 nM
MIC [2]: > 40 µg/mL
MIC [3]: > 40 µg/mL
MIC [4]: 7 µg/mL

COC(=O)N/C=C/CCC(C)c1cc(O)c(C(=O)C(C)=Cc2ccc(OCC3CCCO3)cc2)c(=O)o1 (mixture of isomers) [APY54, methyl (E)-5-(4-hydroxy-3-((E/Z)-2-methyl-3-(4-((tetrahydrofuran-2-yl)methoxy)phenyl)acryloyl)-2-oxo-2H-pyran-6-y)hex-1-enylcarbamate]
IC50 [1]: > 6000 nM
MIC [2]: > 40 µg/mL
MIC [3]: > 40 µg/mL
MIC [4]: 7 µg/mL

CCCCCc1ccc(C=C(C)C(=O)c2c(O)cc(C(C)CC/C=C/NC(=O)OC)oc2=O)cc1 (mixture of isomers) [APY72, methyl (E)-5-(4-hydroxy-5-((E/Z)-2-methyl-3-(4-pentylphenyl)acryloyl)-6-oxo-6H-pyran-2-yl)hex-1-enylcarbamate]
IC50 [1]: 200 nM
MIC [2]: 2 µg/mL
MIC [3]: > 40 µg/mL
MIC [4]: 0.2 µg/mL
MIC [5]: 3 µg/mL
MIC [6]: 10 µg/mL
MIC (Burkholderia mallei CHN7): 10 µg/mL
MIC [7]: 50 µg/mL
MIC (Brucella melitensis 16M): 2 µg/mL

CCc1ccc2cc(C=C(C)C(=O)c3c(O)cc(C(C)CC/C=C/NC(=O)OC)oc3=O)oc2c1 (mixture of isomers) [APY110, methyl ((1E)-5-(3-(3-(6-ethylbenzofuran-2-yl)-2-methylacryloyl)-4-hydroxy-2-oxo-2H-pyran-6-yl)hex-1-en-1-yl)carbamate]
IC50 [1]: 200 nM
MIC [2]: 8 µg/mL
MIC [3]: > 40 µg/mL
MIC [4]: 0.3 µg/mL
MIC [8]: 30 µg/mL

CCCc1ccc(C=C(C)C(=O)c2c(O)cc(C(C)CC/C=C/NC(=O)OC)oc2=O)s1 (mixture of isomers) [APY58, methyl (E)-5-(4-hydroxy-5-((E/Z)-2-methyl-3-(5-propylthiophen-2-yl)acryloyl)-6-oxo-6H-pyran-2-yl)hex-1-enylcarbamate]
IC50 [1]: 80 nM
MIC [2]: 1 µg/mL
MIC [3]: > 40 µg/mL
MIC [4]: 0.2 µg/mL
MIC [8]: 10 µg/mL
MIC [5]: 10 µg/mL
MIC [6]: 50 µg/mL
MIC (Burkholderia mallei CHN7): 50 µg/mL
MIC [7]: 50 µg/mL
MIC (Brucella melitensis 16M): > 50 µg/mL

COC(=O)N/C=C/CCC(C)c1cc(O)c(C(=O)C(C)=Cc2ccc(CCC3CCCCC3)s2)c(=O)o1 (mixture of isomers) [APY62, methyl (E)-5-(5-((E/Z)-3-(5-(2-cyclohexylethyl)thiophen-2-yl)-2-methylacryloyl)-4-hydroxy-6-oxo-6H-pyran-2-yl)hex-1-enylcarbamate]
IC50 [1]: 10 nM
MIC [2]: 2 µg/mL
MIC [3]: > 40 µg/mL
MIC [4]: 10 µg/mL

CCCc1cn(C)c(C=C(C)C(=O)c2c(O)cc(C(C)CC/C=C/NC(=O)OC)oc2=O)n1 (mixture of isomers) [APY143, methyl ((1E)-5-(4-hydroxy-3-(2-methyl-3-(1-methyl-4-propyl-1H-imidazol-2-yl)acryloyl)-2-oxo-2H-pyran-6-yl)hex-1-en-1-yl)carbamate]
IC50 [1]: 1000 nM
MIC [2]: > 40 µg/mL
MIC [3]: > 40 µg/mL
MIC [4]: 10 µg/mL

CCCc1ccc(C=C(C)C(=O)c2c(O)cc(C(C)CC/C=C/NC(=O)OC)oc2=O)cc1 (mixture of isomers) [APY71, methyl (E)-5-(4-hydroxy-5-((E/Z)-2-methyl-3-(4-propylphenyl)acryloyl)-6-oxo-6H-pyran-2-yl)hex-1-enylcarbamate]
IC50 [1]: 400 nM
MIC [2]: 4 µg/mL
MIC [3]: > 40 µg/mL
MIC [4]: 0.5 µg/mL
MIC [5]: 30 µg/mL
MIC [6]: > 50 µg/mL
MIC (Burkholderia mallei CHN7): > 50 µg/mL
MIC [7]: > 50 µg/mL
MIC (Brucella melitensis 16M): 10 µg/mL

COC(=O)N/C=C/CCC(C)c1cc(O)c(C(=O)C(C)=Cc2cc3ccc(CCC(F)(F)F)cc3s2)c(=O)o1 (mixture of isomers) [APY114, methyl ((1E)-5-(4-hydroxy-3-(2-methyl-3-(6-(3,3,3-trifluoropropyl)benzo[b]thiophen-2-yl)acryloyl)-2-oxo-2H-pyran-6-yl)hex-1-en-1-yl)carbamate]
IC50 [1]: 300 nM
MIC [2]: > 40 µg/mL
MIC [3]: > 40 µg/mL
MIC [4]: 0.2 µg/mL

COC(=O)N/C=C/CCC(C)c1cc(O)c(C(=O)C(C)=Cc2cc3ccc(CCC(C)C)cc3o2)c(=O)o1 (mixture of isomers) [APY111, methyl ((1E)-5-(4-hydroxy-3-(3-(6-isopentylbenzofuran-2-yl)-2-methylacryloyl)-2-oxo-2H-pyran-6-yl)hex-1-en-1-yl)carbamate]
IC50 [1]: 50 nM
MIC [2]: > 40 µg/mL
MIC [3]: > 40 µg/mL
MIC [4]: 0.3 µg/mL

COC(=O)N/C=C/CCC(C)c1cc(O)c(C(=O)C(C)=Cc2ccc(OCC3CCCC3)cc2)c(=O)o1 (mixture of isomers) [APY52]
IC50 [1]: 2000 nM
MIC [2]: 4 µg/mL
MIC [3]: > 40 µg/mL
MIC [4]: 0.4 µg/mL
MIC [8]: 30 µg/mL
MIC [5]: 2 µg/mL
MIC [6]: 30 µg/mL
MIC (Burkholderia mallei CHN7): 50 µg/mL
MIC [7]: > 50 µg/mL
MIC (Brucella melitensis 16M): 3 µg/mL

COC(=O)N/C=C/CCC(C)c1cc(O)c(C(=O)C(C)=Cc2ccc(CCC(C)(C)C)s2)c(=O)o1 (mixture of isomers) [APY56, methyl (E)-5-(4-hydroxy-5-((E/Z)-2-methyl-3-(5-(3,3-dimethylbutyl)thiophen-2-yl)acryloyl)-6-oxo-6H-pyran-2-yl)hex-1-enylcarbamate]
IC50 [1]: 7 nM
MIC [2]: 0.7 µg/mL
MIC [3]: 10 µg/mL
MIC [4]: 0.2 µg/mL
MIC [8]: 10 µg/mL
MIC [5]: 0.2 µg/mL
MIC [6]: 6 µg/mL
MIC (Burkholderia mallei CHN7): 3 µg/mL
MIC [7]: 6 µg/mL
MIC (Brucella melitensis 16M): 3 µg/mL

COC(=O)N/C=C/CCC(C)c1cc(O)c(C(=O)C(C)=Cc2cc3ccc(CCC(F)(F)F)cc3o2)c(=O)o1 (mixture of isomers) [APY112, methyl ((1E)-5-(4-hydroxy-3-(2-methyl-3-(6-(3,3,3-trifluoropropyl)benzofuran-2-yl)acryloyl)-2-oxo-2H-pyran-6-yl)hex-1-en-1-yl)carbamate]
IC50 [1]: 300 nM
MIC [2]: > 40 µg/mL
MIC [3]: > 40 µg/mL
MIC [4]: 0.2 µg/mL

COC(=O)N/C=C/CCC(C)c1cc(O)c(C(=O)C(C)=Cc2ccc(CCC(F)(F)F)cc2)c(=O)o1 (mixture of isomers) [APY74, methyl (E)-5-(5-((E/Z)-3-(4-(3,3,3-trifluoropropyl)phenyl)-2-methylacryloyl)-4-hydroxy-6-oxo-6H-pyran-2-yl)hex-1-enylcarbamate]
IC50 [1]: 40 nM
MIC [2]: 2 µg/mL
MIC [3]: > 40 µg/mL
MIC [4]: 0.2 µg/mL
MIC [8]: 10 µg/mL
MIC [5]: 10 µg/mL
MIC [6]: 50 µg/mL
MIC (Burkholderia mallei CHN7): > 50 µg/mL
MIC [7]: > 50 µg/mL
MIC (Brucella melitensis 16M): 10 µg/mL

COC(=O)N/C=C/CCC(C)c1cc(O)c(C(=O)C(C)=Cc2ccc(OCC(C)C)cc2)c(=O)o1 (mixture of isomers) [APY53, methyl (E)-5-(4-hydroxy-3-((E/Z)-3-(4-isobutoxyphenyl)-2-methacryloyl)-4-hydroxy-2-oxo-2H-pyran-6-yl)hex-1-enylcarbamate]
IC50 [1]: 2000 nM
MIC [2]: 2 µg/mL
MIC [3]: > 40 µg/mL
MIC [4]: 0.4 µg/mL
MIC [8]: 6 µg/mL
MIC [5]: 3 µg/mL
MIC [6]: 50 µg/mL
MIC (Burkholderia mallei CHN7): > 50 µg/mL
MIC [7]: > 50 µg/mL
MIC (Brucella melitensis 16M): 10 µg/mL

COC(=O)N/C=C/CCC(C)c1cc(O)c(C(=O)C(C)=Cc2cnc(N3CCCCC3)s2)c(=O)o1 (stereo not shown) [APY142]
IC50 [1]: 600 nM
MIC [2]: 20 µg/mL (≈ 39.9 µM)
MIC [3]: > 40 µg/mL
MIC [4]: 1 µg/mL (≈ 1.99 µM)

COC(=O)N/C=C/CCC(C)c1cc(O)c(C(=O)C(C)=Cc2cccc(OCCC(C)C)c2)c(=O)o1 (mixture of isomers) [APY51, methyl (E)-5-(4-hydroxy-3-((E/Z)-3-(3-isopentyloxy)phenyl)-2-methacryloyl-2-oxo-2H-pyran-6-yl)hex-1-enylcarbamate]
IC50 [1]: 1000 nM
MIC [2]: > 40 µg/mL
MIC [3]: > 40 µg/mL
MIC [4]: 0.5 µg/mL

COC(=O)N/C=C/CCC(C)c1cc(O)c(C(=O)C(C)=Cc2ccc(OCCC(C)C)cc2)c(=O)o1 (mixture of isomers) [APY50, methyl (E)-5-(4-hydroxy-3-((E/Z)-3-(4-isopentyloxy)phenyl)-2-methacryloyl-2-oxo-2H-pyran-6-yl)hex-1-enylcarbamate]
IC50 [1]: > 6000 nM
MIC [2]: > 40 µg/mL
MIC [3]: > 40 µg/mL
MIC [4]: 2 µg/mL

COC(=O)N/C=C/CCC(C)c1cc(O)c(C(=O)C(C)=Cc2ccc(C)cc2)c(=O)o1 (mixture of isomers) [APY57, methyl (E)-5-(4-hydroxy-5-((E/Z)-2-methyl-3-p-tolylacryloyl)-6-oxo-6H-pyran-2-yl)hex-1-enylcarbamate]
IC50 [1]: > 6000 nM
MIC [2]: > 40 µg/mL
MIC [3]: > 40 µg/mL
MIC [4]: 1 µg/mL

COC(=O)N/C=C/CCC(C)c1cc(O)c(C(=O)C(C)=Cc2cc(CCC(F)(F)F)cn2C)c(=O)o1 (mixture of isomers) [APY135, methyl ((1E)-5-(4-hydroxy-3-(2-methyl-3-(1-methyl-4-(3,3,3-trifluoropropyl)-1H-pyrrol-2-yl)acryloyl)-2-oxo-2H-pyran-6-yl)hex-1-en-1-yl)carbamate]
IC50 [1]: 100 nM
MIC [2]: 10 µg/mL
MIC [3]: > 40 µg/mL
MIC [4]: 2 µg/mL

Reference: patent US9592221B2, “Antibacterial agents: aryl myxopyronin derivatives” (priority 2012, dated 2017)
